Results published in US20240269094A1, “Treatment of canine dermatitis and skin irritation” (priority 2023, published 2024).
“Also recorded” adds a separate entry of the source. Read-outs that look alike come from different tables or passages of the source.

Tests used:
[1] = Comparison of classes of cooling agents for applications on the canine skin (grades); set-up: species or system dog; key: A = excellent; B = average; C = poor; F = does not work; conditions: grade
Excerpt: Here are comments on grades assigned to specific classes of cooling agents (Table 3). […] The p-menthane carboxamides cover a wide range of compounds, but they are difficult for skin formulation to achieve a long duration of action. Menthol is short-acting and irritating, especially when it is near the ocular surface. The 1-dialkylphosphorylalkane known as DIPA1-7 (Cryosim-1, 1-dialkylphosphorylheptane) is an excellent skin agent, but costs are high for dermatological applications.

[2] = biological target: T1, TRPA1 (Homo sapiens, UniProt O75762); conditions: Johnson et al. 2018; applicant could not repeat; cited from earlier work
T1 construct: expressed in transfected cells

[3] = biological target: T2, TRPM8 (Homo sapiens, UniProt Q7Z2W7); assay: Bioassay of FEMA 4557 in TRPM8 (laboratory of Prof. Seok-Yong Lee, FIG. 4); assay type: cell-based
Excerpt: (§1) FIG. 4 Bioassay of FEMA 4557 (labeled as BUDA on the graph) in TRPM8 and TRPA1. Data from the laboratory of Prof. Seok-Yong Lee at Duke University.
(§2) FIG. 4 Bioassay of FEMA 4557 (labeled as BUDA) in TRPM8 and TRPA1. Data of Prof. Seok-Yong Lee at Duke University.

[4] = biological target: T2, TRPM8; set-up: EC50; other: Johnson, 2.2/2.2; conditions: Ref. 5 (Johnson et al., 2018); cited from earlier work
[5] = tested on: philtrum skin; assay: Philtrum (skin) bioassay of cooling; assay type: in vivo, human
Protocol: FIG. 5. The philtrum bioassay. Cooling agents, prepared as a or in solution are applied to the philtrum skin. Cooling intensity is rated on a scale of 0 to 3, with 0=no changes in sensation, 1=a slight feeling of coolness, cold or tingling, 2=a clearcut feeling of coolness of cold, and 3=a robust feeling of coolness of cold. The duration of cooling was recorded until two zeroes were measured 10 min apart.
TRPM8 EC50 Receptor Assay. […] A receptor assay is a standard tool and can be done quickly. For example, in a 384-plate assay, you can easily test 10 compounds and get dose-response data. For a chemical agonist, an in vitro TRPM8 assay generates an EC50 (median effective concentration). But the quantitative correlation between the EC50 on TRPM8 and cooling sensation was vague. That is, the science was “roughly” predictive, but there was considerable uncertainty for each agonist. […] Philtrum (Skin) Assay. For cooling sensations on the skin, it is necessary to test the substance on the skin. Wei proposed the use of the skin on the philtrum as a test site for cooling activity of chemicals (FIG. 5). The test substance is dissolved in a carrier, such as solvent, gel, or ointment and applied to the philtrum, a surface area of […]. The subject records sensations on the philtrum and environs as:
The subject is given a form to record observations and instructions to mark sensations on the philtrum and environs as: 0=no changes in sensation, 1=a slight feeling of coolness, cold, or tingling, 2=a clearcut feeling of coolness or cold, and 3=a robust feeling of coolness and cold.
The intervals for measurements are usually at 5, to 15 min after application, until two successive zeros are obtained. The philtrum application site is the midline groove above the upper lip border and vermilion. The gel is placed on the philtrum with a cotton-tipped applicator up to the nasolabial folds and sometimes, but not deliberately, on the lower nostrils (subnasale). Cold receptors densely innervate the philtrum skin (FIG. 5), second only to the surfaces of the eyeball and anogenitalia. The lips also have a high density of “cold spots.” Hensel et al. mapped the cold spots on the human face (cited in Dhaka et al., 2008). In animals such as the rat the mystacial pad (nose pad with vibrissae) is abundantly labeled with TRPM8-fibers. “Cold Points” linked to single-unit neuronal discharges can be measured in experimental animals. Wei has direct experience in such experiments (Poree et al., 1989).
Dip a cotton-tipped applicator (Puritan Cotton-tipped applicators, or Q-Tips) into a reservoir bottle containing the liquid or semi-liquid (gel) test substance. The composition adhering to the cotton (about 0.1 mL) is put on the skin. The philtrum site is shown in a cartoon. A subject can practice the method in front of a mirror with a high-intensity light source. Results for test on the philtrum are in Table 8 and FIG. 5. See data in FIG. 6. Cooling agents, prepared as an 8% wt./vol. gel, was tested topically on the philtrum skin assay. The duration of cooling was recorded (min on y-axis). The startling activity of FEMA 4557, cooling for ˜3 hr, was unexpected and surprising. FEMA 3784 is also known as Cool 10 or menthoxypropanediol. […]

[6] = tested on: canine dermatitis, scratching and licking; assay: Topical treatment of canine skin irritation (case studies); assay type: in vivo, dog; conditions: 32% wt/vol liquid in 1,2-propanediol, 4% ethanol, 4% l-menthol
[7] = tested on: tongue; assay: Oral cavity screen: 15 mg of crystals on the dorsal surface of the tongue; assay type: in vivo, human
Protocol: In this discovery, sensory activity in the oral cavity was the first screen. The goal was to identify candidates producing unusual sensations. Test agents, prepared as 15 mg of white crystals, were placed on the dorsal surface of the tongue. The chemical structures and identifying characteristics are in Table 1. […] Related cooling agents were not freezing cold, except for WS-23.

[8] = biological target: T1, TRPA1; assay: Bioassay in cells transfected with TRPA1 (FIG. 4); assay type: cell-based
Excerpt: as §1, §2

[9] = tested on: canine dermatitis, scratching and licking; assay: Topical treatment of canine skin irritation (case studies); assay type: in vivo, dog
Protocol: The Applicant gave the dog's owner an airless pump dispenser containing 8% wt/vol of FEMA 4557 dispersed in 4 mg/ml of carbapol 980, formulated with 1% ethanol and 1% menthol, and instructed him to apply the gel to the skin of the dog's belly and groin.
A twelve-year-old West Highland Terrier had periodic episodes of seasonal skin allergy. […] The owner of the dog, who had access to a pharmacy, applied nystatin ointment and a potent skin steroid cream containing […].
Next, a 20% wt/vol FEMA 4557 solution, dissolved in propylene glycol, was applied to the interdigital folds of the paws with a cotton-tipped applicator (FIG. 9).

[10] = tested on: oral cavity; conditions: 100 ppm in 5% sucrose; scale of 0 to 9 units; Johnson, 2018; cited from earlier work
[11] = 8% wt/vol gel with ethanol, 1,2-propanediol, carbomer and dispersing agent or 0.2% DIPA-1-7 initiator
[12] = topical liquid or gel, Table 11

T1 sequence (O75762 whole entry, species assumed): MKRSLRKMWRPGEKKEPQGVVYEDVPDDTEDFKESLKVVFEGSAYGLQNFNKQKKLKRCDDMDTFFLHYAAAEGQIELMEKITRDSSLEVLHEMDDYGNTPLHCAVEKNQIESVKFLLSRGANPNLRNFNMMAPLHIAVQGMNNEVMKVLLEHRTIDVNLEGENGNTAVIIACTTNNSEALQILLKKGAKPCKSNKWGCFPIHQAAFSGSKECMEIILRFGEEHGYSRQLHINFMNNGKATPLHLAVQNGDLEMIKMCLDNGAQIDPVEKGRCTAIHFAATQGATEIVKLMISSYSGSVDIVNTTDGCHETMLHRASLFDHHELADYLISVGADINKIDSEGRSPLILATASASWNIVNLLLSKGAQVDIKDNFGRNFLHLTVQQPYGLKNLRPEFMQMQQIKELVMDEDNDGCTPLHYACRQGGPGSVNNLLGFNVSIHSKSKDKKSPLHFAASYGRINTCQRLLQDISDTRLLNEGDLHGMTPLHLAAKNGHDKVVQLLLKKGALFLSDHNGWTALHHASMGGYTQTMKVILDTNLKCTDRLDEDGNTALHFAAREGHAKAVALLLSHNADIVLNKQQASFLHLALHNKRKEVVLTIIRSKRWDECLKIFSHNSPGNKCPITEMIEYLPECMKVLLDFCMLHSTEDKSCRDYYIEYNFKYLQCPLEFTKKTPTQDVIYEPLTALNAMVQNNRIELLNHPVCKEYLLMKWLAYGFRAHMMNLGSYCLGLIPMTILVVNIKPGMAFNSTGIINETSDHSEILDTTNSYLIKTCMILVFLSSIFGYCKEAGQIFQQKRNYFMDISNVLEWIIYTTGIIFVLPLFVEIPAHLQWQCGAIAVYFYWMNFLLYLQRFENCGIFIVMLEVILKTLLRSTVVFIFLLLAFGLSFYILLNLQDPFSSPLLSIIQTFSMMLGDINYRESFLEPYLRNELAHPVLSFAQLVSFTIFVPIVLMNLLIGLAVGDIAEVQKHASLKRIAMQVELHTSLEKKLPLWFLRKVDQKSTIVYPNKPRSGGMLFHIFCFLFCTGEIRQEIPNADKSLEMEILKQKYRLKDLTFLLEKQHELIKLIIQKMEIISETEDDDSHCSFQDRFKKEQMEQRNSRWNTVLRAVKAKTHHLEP
T2 sequence (Q7Z2W7 whole entry, species assumed): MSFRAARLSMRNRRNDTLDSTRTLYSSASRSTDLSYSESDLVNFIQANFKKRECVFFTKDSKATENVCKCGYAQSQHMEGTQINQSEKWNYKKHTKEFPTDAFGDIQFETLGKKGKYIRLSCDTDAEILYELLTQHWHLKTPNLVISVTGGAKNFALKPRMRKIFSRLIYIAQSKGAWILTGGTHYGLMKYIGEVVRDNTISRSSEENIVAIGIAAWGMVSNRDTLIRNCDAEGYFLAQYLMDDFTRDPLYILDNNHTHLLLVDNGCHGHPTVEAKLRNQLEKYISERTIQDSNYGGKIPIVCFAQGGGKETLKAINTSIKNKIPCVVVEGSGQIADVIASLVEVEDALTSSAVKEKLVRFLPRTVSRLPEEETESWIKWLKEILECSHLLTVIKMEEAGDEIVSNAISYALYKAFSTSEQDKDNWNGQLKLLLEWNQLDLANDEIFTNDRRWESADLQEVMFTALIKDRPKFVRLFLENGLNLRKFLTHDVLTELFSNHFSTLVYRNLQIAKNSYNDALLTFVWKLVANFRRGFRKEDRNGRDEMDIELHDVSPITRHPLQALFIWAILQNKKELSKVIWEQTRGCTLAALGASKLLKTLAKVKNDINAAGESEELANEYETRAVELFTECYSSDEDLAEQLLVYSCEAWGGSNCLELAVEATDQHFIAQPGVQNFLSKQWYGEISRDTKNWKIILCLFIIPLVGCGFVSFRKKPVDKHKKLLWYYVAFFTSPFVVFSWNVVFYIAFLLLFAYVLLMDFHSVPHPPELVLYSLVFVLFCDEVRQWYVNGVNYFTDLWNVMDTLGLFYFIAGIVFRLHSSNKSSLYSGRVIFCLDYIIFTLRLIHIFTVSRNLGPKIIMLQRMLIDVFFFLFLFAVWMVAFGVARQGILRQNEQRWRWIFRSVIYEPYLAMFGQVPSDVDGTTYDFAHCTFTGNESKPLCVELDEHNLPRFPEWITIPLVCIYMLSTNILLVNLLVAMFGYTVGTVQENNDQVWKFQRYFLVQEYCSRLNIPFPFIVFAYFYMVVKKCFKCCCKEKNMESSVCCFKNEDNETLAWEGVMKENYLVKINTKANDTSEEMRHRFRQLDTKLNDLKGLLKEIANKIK

Structure (SMILES): CCNC(=O)C(CC)(C(C)C)C(C)C [FEMA 4557, N-ethyl-2,2-diisopropylbutanamide]
- Absence of Irritancy [1]: A
- Potency [1]: C
- Rapid Onset [1]: B
- Safety in Use [1]: A
- Sufficient Duration [1]: A+
- activity on TRPA1 as reported in literature [2]: activates TRPA1
- EC50 potency relative to l-menthol ([3]; FIG. 4): about 1/30
- EC50 ([3]; FIG. 4, estimated): 410 µM
- activity on TRPM8 as % of the activity of l-menthol ([3]; further experiments by the applicant): 10%
- potency relative to menthol ([3]; tests by Prof Lee (FIG. 4)): < 0.1
- EC50 [4]: 1.6 µM
- average time of cooling ([5]; 8% concentration): ≥ 175 min
- Duration of cooling ([5]; 8% wt./vol. gel, FIG. 6): ~3 h
- Comments: quality of sensation on philtrum skin ([5]; 8% wt/vol): icy cold sensations, prolonged cooling,
- duration of effect of topical gel [5, 11]: ≥ 3 h
- onset of topical gel [5, 11]: less than 3 min
- Duration of cooling ([5]; 8% wt/vol on philtrum): 180+ min
- total therapeutic duration ([5]; 16 to 32%): at least 6 hr
- after effect: further cooling on the skin ([5]; 16 to 32%, revealed by warm towel): 3 h
- cooling duration compared to menthol ([5]; >180/25): > 7 fold
- Duration-Skin ([5]; Wei, Table 6, see FIG. 6): 3+ Hours
- Duration of cooling ([5]; concentrations ≥5%, FIG. 7): ≥ 1 h
- skin tissue irritation or inflammation ([5]; concentrations ≥5%, up to 50% wt/vol): not observed or detected
- average time of cooling ([5]; first concentration of '2.4 and 8%' (2%)): 50 min
- effective concentration for topical activity on the skin ([5]; in vivo): ≥ 5%
- average time of cooling ([5]; second concentration of '2.4 and 8%' (4%)): 95 min
- Duration of cooling ([5]; single dose of the 16 to 32% solution): ~3 h
- sensation on the philtrum ([5]; solution at ≥64%): pleasant and robust cool
- adverse sensations of stinging cold ([5]; solution at ≥64% on the philtrum): No cold stinging sensations were felt
- tolerability on the skin ([5]; solutions of ≥32%): well-tolerated
- Onset [5, 12]: ~10 min
- effect on scratching and rashes [6]: effective for scratching caused by bites of ectoparasites and rashes caused by yeast infection
- Effects of 15 mg on tongue: duration [7]: > 35 min
- Effects of 15 mg on tongue: sensation [7]: stinging, freezing, and painful cold on the throat; also recorded: stinging, painful freezing cold in throat
- Effects of 15 mg on tongue: sensation ([7]; listed as 4557): stinging, painful cold
- activity on TRPA1 [8]: absence of activity; also recorded: not active
- scratching and licking ([9]; Study 2, Dachshund, 8% wt/vol gel on belly and groin, within one day): scratching and licking were reduced
- redness and swelling ([9]; Study 2, after three days of daily application of 8% gel): the redness and swelling disappeared
- licking of paws ([9]; Study 3, 20% wt/vol solution in propylene glycol on interdigital folds): stopped licking its front paws
- scratching ([9]; Study 3, West Highland Terrier, 8% gel on groin, hindquarters, perianal area): stopped the scratching
- signs of skin discomfort ([9]; Study 3, after five days of treatment): All signs of skin discomfort disappeared
- anti-itch effect of topical formulations ([9]; topical gel or solution, insect bites, dermatitis, allergies): effectively treated the itch; also recorded: anti-itch effects on flea bites and other skin
- Side-effects [9, 12]: None observed
- Cooling Intensity Oral Cavity Scaled [10]: 3.3
